From patent US20240116996A1, “METHODS AND COMPOSITIONS FOR TREATING A CORONAVIRUS INFECTION” (Recovery Therapeutics, Inc., priority 2021, published 2024)
Where two headings read alike, the source gives them in different places.

Experiments:
[1] = tested on: human coronavirus strain 229E (HCoV-229E); format: cell-based; conditions: FGF-2 1 ng/mL to 0.003 ng/mL, XTT
[2] = tested on: SARS-CoV-2 (strain USA-WA1/2020); format: in vivo, Golden Syrian hamsters; conditions: lungs on D6
HAP1 cells = conditions: increasing concentrations of FGF-2 up to 1 ng/mL, XTT

## FGF-2: Recombinant human FGF-2 (SEQ ID NO. 1, 18 kDa low molecular weight isoform); Sigma-Aldrich F0291 in Example 1, PeproTech 100-18B in Example 2
[1]
  EC50 (dose-dependent enhancement of cell survival): 0.08 ng/mL
[2]; 20 μg FGF-2 intravenous on D-1, D0, D1, D2
  reduction in viral load compared to vehicle-treated animals: 51%
[2]; 50 μg FGF-2 intravenous on D-1, D0, D1, D2
  reduction in viral load compared to vehicle-treated animals: 73%
HAP1 cells
  toxicity: without toxicity
